From EP2322194A2 (Reprise Biopharmaceutics, LLC, priority 2003, dated 2005)
Several values for one entry are separate records, joined by “and”; a condition that tells them apart may be missing. Equal values may be shown once. Read-outs that look alike come from different tables or passages of the source.

Tested on: over-hydrated, healthy, non-smoking male and female volunteers
Format: in vivo, human
Conditions: for Mean peak urine osmolality: at 2 hours; for Mean nadir urine output: end of 2 hour infusion; for Urine Output / Urine Osmolality: individual subjects
Description: Briefly, an open-label, crossover study with 8 healthy, over-hydrated, non-smoking male and female volunteers, age 18-40. The subjects were dosed initially with 0.5 ng/kg dose, then with the 1.0 ng/kg dose and finally the 2.0 ng/kg dose. Pharmacodynamic and pharmacokinetic parameters were evaluated at each dose level. A washout period of two days (48 hours) was observed between dosing. Eight subjects evaluated in this study, 5 males, and 3 females. […] Each subject remained in the clinic from one day prior to first dosing to one day after last dosing for a total of 7 days. […] At this point over-hydration was discontinued. […] Urine-specific gravity was also measured. […] This same procedure was followed for the 1.0 ng/kg and 2.0 ng/kg infusions. […] Criteria for evaluation in the study included urine output over time, urine osmolality over time, urine-specific gravity over time, and […] osmolality and sodium over time. Statistical analysis on the above criteria was performed. The statistical analysis is descriptive and all statistical hypothesis testing was done for exploratory purposes. […] The second and third estimation used 200 mOsm/kg and 400 mOsm/kg as cut off levels for 'onset' and 'end' of action, respectively. […] The overall duration of action was estimated for each dose group using the nonparametric Kaplan-Meier method. […] Furthermore, the duration of action was presented for each treatment group using the mean, SD, median, minimum and maximum values. The dose-response relationship between duration of action and dose was investigated using an appropriate linear or nonlinear model.

[1] = 0.5 ng/kg, time 0 min (baseline)
[2] = 0.5 ng/kg, time -20 min (baseline)
[3] = 1.0 ng/kg, time 0 min (baseline)

## 1-desamino-8-D-arginine vasopressin [desmopressin]
0.5 ng/kg dose
  duration of antidiuretic effect: approximately 180 minutes
  Mean peak urine osmolality: 206.0 mOsm/kg
  Baseline mean urine osmolality: 55.8 mOsm/kg
  Baseline mean urine output: 18.6 mL/min
  Mean nadir urine output: 7.1 mL/min
[1]
  Urine Osmolality, Mean: 57.6 mOsm/kg
  Urine Output, Mean: 18.4 mL/min
0.5 ng/kg, time 20 min
  Urine Osmolality, Mean: 73.1 mOsm/kg
  Urine Output: 16.7 mL/min (2×) and 16.4 mL/min and 11.8 mL/min
0.5 ng/kg, time 40 min
  Urine Osmolality, Mean: 108.3 mOsm/kg
  Urine Output, Mean: 10.3 mL/min
0.5 ng/kg, time 60 min
  Urine Osmolality, Mean: 136.1 mOsm/kg
  Urine Output, Mean: 9.6 mL/min
0.5 ng/kg, time 80 min
  Urine Osmolality, Mean: 165.8 mOsm/kg
0.5 ng/kg, time 100 min
  Urine Osmolality, Mean: 186.3 mOsm/kg
  Urine Output, Mean: 7.7 mL/min
0.5 ng/kg, time 120 min
  Urine Osmolality, Mean: 206.0 mOsm/kg
  Urine Output, Mean: 7.1 mL/min
0.5 ng/kg, time 140 min
  Urine Osmolality, Mean: 188.3 mOsm/kg
  Urine Output, Mean: 9.6 mL/min
0.5 ng/kg, time 160 min
  Urine Osmolality, Mean: 155.8 mOsm/kg
  Urine Output, Mean: 9.7 mL/min
0.5 ng/kg, time 180 min
  Urine Osmolality, Mean: 136.8 mOsm/kg
  Urine Output, Mean: 11.1 mL/min
0.5 ng/kg, time 200 min
  Urine Osmolality, Mean: 157.8 mOsm/kg
  Urine Output, Mean: 10.4 mL/min
0.5 ng/kg, time 220 min
  Urine Osmolality, Mean: 136.5 mOsm/kg
  Urine Output, Mean: 10.4 mL/min
0.5 ng/kg, time 240 min
  Urine Osmolality, Mean: 141.7 mOsm/kg
  Urine Output: 10.5 mL/min and 11.4 mL/min and 4.2 mL/min
0.5 ng/kg, time 260 min
  Urine Osmolality, Mean: 147.5 mOsm/kg
  Urine Output, Mean: 9.7 mL/min
  Urine Osmolality: 80 mOsm/kg and 215 mOsm/kg
0.5 ng/kg, time 280 min
  Urine Osmolality, Mean: 169.0 mOsm/kg
  Urine Osmolality: 88 mOsm/kg and 250 mOsm/kg
0.5 ng/kg, time 300 min
  Urine Osmolality, Mean: 193.0 mOsm/kg
  Urine Output, Mean: 4.1 mL/min
  Urine Osmolality: 193 mOsm/kg
  Urine Output: 4.1 mL/min
0.5 ng/kg, time 320 min
  Urine Osmolality, Mean: 156.0 mOsm/kg
  Urine Output, Mean: 5.0 mL/min
  Urine Osmolality: 156 mOsm/kg
  Urine Output: 5 mL/min
0.5 ng/kg, time 340 min
  Urine Osmolality, Mean: 133.0 mOsm/kg
  Urine Output, Mean: 6.4 mL/min
  Urine Osmolality: 133 mOsm/kg
  Urine Output: 6.4 mL/min
0.5 ng/kg, time 360 min
  Urine Osmolality, Mean: 120.0 mOsm/kg
  Urine Output, Mean: 7.3 mL/min
  Urine Osmolality: 120 mOsm/kg
  Urine Output: 7.3 mL/min
[2]
  Urine Osmolality, Mean: 55.8 mOsm/kg
  Urine Output, Mean: 18.6 mL/min
1.0 ng/kg dose
  Mean peak urine osmolality: 444.7 mOsm/kg
  Baseline mean urine osmolality: 55.8 mOsm/kg
  Baseline mean urine output: 16.6 mL/min
  Mean nadir urine output: 1.3 mL/min
[3]
  Urine Osmolality, Mean: 56.5 mOsm/kg
  Urine Output, Mean: 16.7 mL/min
  Urine Output: 17.4 mL/min
1.0 ng/kg, time 20 min
  Urine Osmolality, Mean: 67.1 mOsm/kg
  Urine Output: 11.2 mL/min and 10.4 mL/min
1.0 ng/kg, time 40 min
  Urine Osmolality, Mean: 167.0 mOsm/kg
  Urine Output, Mean: 7.0 mL/min
  Urine Output: 5.7 mL/min and 7.6 mL/min
1.0 ng/kg, time 60 min
  Urine Osmolality, Mean: 259.4 mOsm/kg
  Urine Output, Mean: 3.7 mL/min
  Urine Output: 3.5 mL/min
1.0 ng/kg, time 80 min
  Urine Osmolality, Mean: 322.8 mOsm/kg
  Urine Output, Mean: 2.0 mL/min
  Urine Output: 0 mL/min
1.0 ng/kg, time 100 min
  Urine Osmolality, Mean: 375.5 mOsm/kg
  Urine Output, Mean: 2.5 mL/min
  Urine Output: 3.7 mL/min
1.0 ng/kg, time 120 min
  Urine Osmolality, Mean: 444.7 mOsm/kg
  Urine Output, Mean: 1.3 mL/min
  Urine Output: 0 mL/min
